# Results: ChEMBL document CHEMBL6127092, “Comprehensive structural investigation of a potent and selective CXCR4 antagonist via crosslink modification” (Eur J Med Chem, 2024)
# pIC50: −log10 of the molar value. The source made the active and inactive calls. No cut-off for these calls is given here. Where a SMILES comes first, the peptide text is derived from it. Bridges are numbered along the chain shown (N, C = ends). Triazole bridges read from a SMILES are 1,4-linked. [ ]: non-standard residue; d: D form. 2Nal = N[C@@H](Cc1ccc2ccccc2c1)C(=O)O; Dap(N3) = [N-]=[N+]=NC[C@H](N)C(=O)O; Pra = C#CC[C@H](N)C(=O)O
# Assays:
# [1] = molecular target: T1, C-X-C chemokine receptor type 4 (Homo sapiens, UniProt P61073); assay: Binding affinity to CXCR4 (unknown origin) overexpressed in human CCRF-CEM cells assessed as inhibition of ant-CXCR4 PE-antibody binding to receptor preincubated with compound for 45 mins followed by anti-CXCR4 PE-antibody addition and measured after 30 mins by flow cytometry based competitive binding assay; type: cell-based
# [2] = molecular target: T1, C-X-C chemokine receptor type 4; assay: Antagonist activity at GFP-tagged CXCR4 (unknown origin) transfected in CHO cells assessed as inhibition of CXCL12-induced cytoplasmic translocation at 0.1 to 1 uM incubated with compound for 45 mins with subsequent CXCL12 addition and measured at 30 to 90 mins by DAPI staining based fluorescence microscopic analysis; type: cell-based; details: filed as antagonist, dose 0.1-1 µM, time 30-90 min
# [3] = molecular target: T1, C-X-C chemokine receptor type 4; assay: Agonist activity at GFP-tagged CXCR4 (unknown origin) transfected in CHO cells assessed as induction of internalization at 0.1 to 1 uM incubated with compound for 45 mins and measured at 30 to 90 mins by DAPI staining based fluorescence microscopic analysis; type: functional, cell-based; details: dose 0.1-1 µM, time 30-90 min
# [4] = molecular target: T1, C-X-C chemokine receptor type 4; assay: Agonist activity at CXCR4 (unknown origin) transfected in human CCRF-CEM cells assessed as induction of internalization at 0.1 uM incubated for 45 mins by flow cytometric analysis; type: functional, cell-based
# [5] = molecular target: T1, C-X-C chemokine receptor type 4; assay: Antagonist activity at CXCR4 (unknown origin) transfected in human CCRF-CEM cells assessed as inhibition of CXCL12-induced internalization at 0.1 to 1 uM preincubated for 45 mins followed by CXCL12 addition and measured after 30 mins by flow cytometric analysis; type: cell-based; details: filed as antagonist, dose 0.1-1 µM, time 75.0 min
# [6] = tested on: CCRF-CEM; assay: Inhibition of CXCL12-mediated cell migration in human CCRF-CEM cells expressing CXCR4 at 0.01 to 10 uM incubated for 6 hrs by DAPI staining based fluorescence microscopic analysis; type: functional; details: dose 0.01-10 µM
# [7] = molecular target: Atypical chemokine receptor 3 (Homo sapiens) (UniProt P25106); assay: Binding affinity to CXCR7 (unknown origin) overexpressed in human MCF7 cells upto 10 uM preincubated for 45 mins followed by anti-CXCR7-APC antibody addition and measured after 30 mins by flow cytometric analysis; type: cell-based; details: time 75.0 min
# [8] = Stability of compound in PBS at pH 7.4 assessed as parent compound remaining at 10 uM measured immediately in presence of GSH by RP-HPLC analysis; type: physicochemical; details: PBS with GSH, read-out: Stability
# [9] = Stability of compound in PBS at pH 7.4 assessed as parent compound remaining at 10 uM measured after 1 hrs in presence of GSH by RP-HPLC analysis; type: physicochemical; details: PBS with GSH, read-out: Stability
# [10] = Stability of compound in PBS at pH 7.4 assessed as parent compound remaining at 10 uM measured after 2 hrs in presence of GSH by RP-HPLC analysis; type: physicochemical; details: PBS with GSH, read-out: Stability
# [11] = Stability of compound in PBS at pH 7.4 assessed as parent compound remaining at 10 uM measured after 4 hrs in presence of GSH by RP-HPLC analysis; type: physicochemical; details: PBS with GSH, read-out: Stability
# [12] = Stability of compound in PBS at pH 7.4 assessed as parent compound remaining at 10 uM measured after 8 hrs in presence of GSH by RP-HPLC analysis; type: physicochemical; details: PBS with GSH, read-out: Stability
# [13] = molecular target: T1, C-X-C chemokine receptor type 4; assay: Displacement of [125I]-CXCL12 from CXCR4 (unknown origin) overexpressed in human CCRF-CEM cells incubated for 1 hrs by gamma-counter; type: cell-based
# [14] = tested on: CCRF-CEM; assay: Inhibition of CXCL12-mediated cell migration in human CCRF-CEM cells expressing CXCR4 at 0.01 uM incubated for 6 hrs by DAPI staining based fluorescence microscopic analysis; type: functional
# [15] = tested on: CCRF-CEM; assay: Inhibition of CXCL12-mediated cell migration in human CCRF-CEM cells expressing CXCR4 incubated for 6 hrs by DAPI staining based fluorescence microscopic analysis; type: functional; details: dose 0.01-10 µM
# [16] = molecular target: T1, C-X-C chemokine receptor type 4; assay: Agonist activity at CXCR4 (unknown origin); type: functional
# T1 sequence (P61073 whole entry): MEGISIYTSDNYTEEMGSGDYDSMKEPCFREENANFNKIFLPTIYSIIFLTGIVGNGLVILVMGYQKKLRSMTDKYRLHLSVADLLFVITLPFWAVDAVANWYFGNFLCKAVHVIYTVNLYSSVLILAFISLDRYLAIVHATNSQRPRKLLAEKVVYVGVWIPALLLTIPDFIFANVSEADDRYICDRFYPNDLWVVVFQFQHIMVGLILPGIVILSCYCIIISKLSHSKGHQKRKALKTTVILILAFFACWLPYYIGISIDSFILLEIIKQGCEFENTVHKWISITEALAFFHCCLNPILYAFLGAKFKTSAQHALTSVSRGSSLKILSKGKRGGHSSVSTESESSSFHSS
# Sequence of Atypical chemokine receptor 3 (Homo sapiens) (P25106 whole entry): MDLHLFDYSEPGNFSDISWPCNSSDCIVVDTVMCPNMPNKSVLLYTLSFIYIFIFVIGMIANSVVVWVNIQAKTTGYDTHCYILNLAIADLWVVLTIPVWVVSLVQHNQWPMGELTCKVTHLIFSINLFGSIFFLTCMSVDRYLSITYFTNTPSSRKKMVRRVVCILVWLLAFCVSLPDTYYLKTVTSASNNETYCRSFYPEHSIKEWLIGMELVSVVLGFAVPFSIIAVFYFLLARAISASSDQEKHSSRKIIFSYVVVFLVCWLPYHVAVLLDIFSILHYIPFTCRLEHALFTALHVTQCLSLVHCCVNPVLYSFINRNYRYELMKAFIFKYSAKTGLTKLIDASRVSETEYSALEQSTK
structure (smiles),measurement,setting,value
CC(=O)N[C@@H](CCCNC(=N)N)C(=O)N[C@@H](C)C(=O)N[C@@H]1CC(=O)NCCC[C@@H](C(=O)O)NC(=O)[C@H](Cc2c[nH]cn2)NC(=O)[C@H](Cc2ccc3ccccc3c2)NC(=O)[C@H](CCCNC(=N)N)NC1=O,pIC50,[1],5.69
CC(=O)N[C@@H](CCCNC(=N)N)C(=O)N[C@@H](C)C(=O)N[C@H]1CSSC(C)(C)[C@H](C(=O)O)NC(=O)[C@H](Cc2c[nH]cn2)NC(=O)[C@H](Cc2ccc3ccccc3c2)NC(=O)[C@H](CCCNC(=N)N)NC1=O,Activity,[2],Active
same,Activity,[3],inactive
same,Activity,[4],inactive
same,Activity,[5],Active
same,inhibition,[6],Active
same,Activity,[7],inactive
CC(=O)N[C@@H](CCCNC(=N)N)C(=O)N[C@@H](C)C(=O)N[C@@H]1CCC(=O)NC[C@@H](C(=O)O)NC(=O)[C@H](Cc2c[nH]cn2)NC(=O)[C@H](Cc2ccc3ccccc3c2)NC(=O)[C@H](CCCNC(=N)N)NC1=O,pIC50,[1],7.05
CC(=O)N[C@@H](CCCNC(=N)N)C(=O)N[C@@H](C)C(=O)N[C@H]1CCC(=O)NC[C@@H](C(=O)O)NC(=O)[C@H](Cc2c[nH]cn2)NC(=O)[C@H](Cc2ccc3ccccc3c2)NC(=O)[C@H](CCCNC(=N)N)NC1=O,pIC50,[1],6.29
CC(=O)N[C@@H](CCCNC(=N)N)C(=O)N[C@@H](C)C(=O)N[C@H]1CCC(=O)NCC[C@@H](C(=O)O)NC(=O)[C@H](Cc2c[nH]cn2)NC(=O)[C@H](Cc2ccc3ccccc3c2)NC(=O)[C@H](CCCNC(=N)N)NC1=O,pIC50,[1],< 8.00
CC(=O)N[C@@H](CCCNC(=N)N)C(=O)N[C@@H](C)C(=O)N[C@@H]1CSSC(C)(C)[C@@H](C(=O)O)NC(=O)[C@H](Cc2cnc[nH]2)NC(=O)[C@H](Cc2ccc3ccccc3c2)NC(=O)[C@H](CCCNC(=N)N)NC1=O,"remaining at 0 h, 10 µM",[8],100%
same,"remaining at 1 h, 10 µM",[9],88%
same,"remaining at 2 h, 10 µM",[10],79%
same,"remaining at 4 h, 10 µM",[11],65%
same,"remaining at 8 h, 10 µM",[12],52%
same,pIC50,[1],8.82
same,pIC50,[13],7.82
CC(=O)N[C@@H](CCCNC(=N)N)C(=O)N[C@@H](C)C(=O)N[C@H]1CNC(=O)CC[C@@H](C(=O)O)NC(=O)[C@H](Cc2c[nH]cn2)NC(=O)[C@H](Cc2ccc3ccccc3c2)NC(=O)[C@H](CCCNC(=N)N)NC1=O,"remaining at 0 h, 10 µM",[8],100%
same,"remaining at 1 h, 10 µM",[9],100%
same,"remaining at 2 h, 10 µM",[10],100%
same,"remaining at 4 h, 10 µM",[11],100%
same,"remaining at 8 h, 10 µM",[12],100%
same,Activity,[2],Active
same,Activity,[3],inactive
same,Activity,[4],inactive
same,Activity,[5],Active
same,inhibition,[14],Active
same,inhibition,[15],Dose-Dependent Effect
same,Activity,[7],inactive
same,pIC50,[1],8.11
same,pIC50,[13],8.41
CC(=O)N[C@@H](CCCNC(=N)N)C(=O)N[C@@H](C)C(=O)N[C@H]1CCC(=O)NCCC[C@@H](C(=O)O)NC(=O)[C@H](Cc2c[nH]cn2)NC(=O)[C@H](Cc2ccc3ccccc3c2)NC(=O)[C@H](CCCNC(=N)N)NC1=O,pIC50,[1],< 8.00
CC(=O)N[C@@H](CCCNC(=N)N)C(=O)N[C@@H](C)C(=O)N[C@@H]1CCC(=O)NCCCC[C@@H](C(=O)O)NC(=O)[C@H](Cc2c[nH]cn2)NC(=O)[C@H](Cc2ccc3ccccc3c2)NC(=O)[C@H](CCCNC(=N)N)NC1=O,pIC50,[1],< 8.00
CC(=O)N[C@@H](CCCNC(=N)N)C(=O)N[C@@H](C)C(=O)N[C@@H]1CCC(=O)NCC[C@@H](C(=O)O)NC(=O)[C@H](Cc2c[nH]cn2)NC(=O)[C@H](Cc2ccc3ccccc3c2)NC(=O)[C@H](CCCNC(=N)N)NC1=O,pIC50,[1],6.62
CC(=O)N[C@@H](CCCNC(=N)N)C(=O)N[C@@H](C)C(=O)N[C@@H]1CNC(=O)C[C@@H](C(=O)O)NC(=O)[C@H](Cc2c[nH]cn2)NC(=O)[C@H](Cc2ccc3ccccc3c2)NC(=O)[C@H](CCCNC(=N)N)NC1=O,pIC50,[1],5.44
CC(=O)N[C@@H](CCCNC(=N)N)C(=O)N[C@@H](C)C(=O)N[C@@H]1CC(=O)NCC[C@@H](C(=O)O)NC(=O)[C@H](Cc2c[nH]cn2)NC(=O)[C@H](Cc2ccc3ccccc3c2)NC(=O)[C@H](CCCNC(=N)N)NC1=O,pIC50,[1],6.15
CC(=O)N[C@@H](CCCNC(=N)N)C(=O)N[C@@H](C)C(=O)N[C@H]1CC(=O)NCC[C@@H](C(=O)O)NC(=O)[C@H](Cc2c[nH]cn2)NC(=O)[C@H](Cc2ccc3ccccc3c2)NC(=O)[C@H](CCCNC(=N)N)NC1=O,pIC50,[1],6.12
CC(=O)N[C@@H](CCCNC(=N)N)C(=O)N[C@@H](C)C(=O)N[C@H]1CC(=O)NCCCC[C@@H](C(=O)O)NC(=O)[C@H](Cc2c[nH]cn2)NC(=O)[C@H](Cc2ccc3ccccc3c2)NC(=O)[C@H](CCCNC(=N)N)NC1=O,pIC50,[1],< 8.00
CC(=O)N[C@@H](CCCNC(=N)N)C(=O)N[C@@H](C)C(=O)N[C@H]1CCC(=O)NCCCC[C@@H](C(=O)O)NC(=O)[C@H](Cc2c[nH]cn2)NC(=O)[C@H](Cc2ccc3ccccc3c2)NC(=O)[C@H](CCCNC(=N)N)NC1=O,pIC50,[1],< 8.00
CC(=O)N[C@@H](CCCNC(=N)N)C(=O)N[C@@H](C)C(=O)N[C@H]1CC(=O)NCCC[C@@H](C(=O)O)NC(=O)[C@H](Cc2c[nH]cn2)NC(=O)[C@H](Cc2ccc3ccccc3c2)NC(=O)[C@H](CCCNC(=N)N)NC1=O,pIC50,[1],< 8.00
CC(=O)N[C@@H](CCCNC(=N)N)C(=O)N[C@@H](C)C(=O)N[C@@H]1CNC(=O)CC[C@@H](C(=O)O)NC(=O)[C@H](Cc2c[nH]cn2)NC(=O)[C@H](Cc2ccc3ccccc3c2)NC(=O)[C@H](CCCNC(=N)N)NC1=O,pIC50,[1],6.09
CC(=O)N[C@@H](CCCNC(=N)N)C(=O)N[C@@H](C)C(=O)N[C@@H]1CC(=O)NC[C@@H](C(=O)O)NC(=O)[C@H](Cc2c[nH]cn2)NC(=O)[C@H](Cc2ccc3ccccc3c2)NC(=O)[C@H](CCCNC(=N)N)NC1=O,pIC50,[1],5.50
CC(=O)N[C@@H](CCCNC(=N)N)C(=O)N[C@@H](C)C(=O)N[C@H]1Cc2cnnn2CC[C@@H](C(=O)O)NC(=O)[C@H](Cc2c[nH]cn2)NC(=O)[C@H](Cc2ccc3ccccc3c2)NC(=O)[C@H](CCCNC(=N)N)NC1=O,pIC50,[16],7.51
CC(=O)N[C@@H](CCCNC(=N)N)C(=O)N[C@@H](C)C(=O)N[C@H]1Cn2cc(nn2)C[C@@H](C(=O)O)NC(=O)[C@H](Cc2c[nH]cn2)NC(=O)[C@H](Cc2ccc3ccccc3c2)NC(=O)[C@H](CCCNC(=N)N)NC1=O (Ac-RA[Dap(N3)]R[2Nal]H[Pra]-OH; triazole 3-7),pIC50,[13],7.44
CC(=O)N[C@@H](CCCNC(=N)N)C(=O)N[C@@H](C)C(=O)N[C@H]1CNC(=O)C[C@@H](C(=O)O)NC(=O)[C@H](Cc2c[nH]cn2)NC(=O)[C@H](Cc2ccc3ccccc3c2)NC(=O)[C@H](CCCNC(=N)N)NC1=O,pIC50,[1],6.84
CC(=O)N[C@@H](CCCNC(=N)N)C(=O)N[C@@H](C)C(=O)N[C@H]1CC(=O)NC[C@@H](C(=O)O)NC(=O)[C@H](Cc2c[nH]cn2)NC(=O)[C@H](Cc2ccc3ccccc3c2)NC(=O)[C@H](CCCNC(=N)N)NC1=O,pIC50,[1],< 8.00
CC(=O)N[C@@H](CCCNC(=N)N)C(=O)N[C@@H](C)C(=O)N[C@@H]1CC(=O)NCCCC[C@@H](C(=O)O)NC(=O)[C@H](Cc2c[nH]cn2)NC(=O)[C@H](Cc2ccc3ccccc3c2)NC(=O)[C@H](CCCNC(=N)N)NC1=O,pIC50,[1],5.59
CC(=O)N[C@@H](CCCNC(=N)N)C(=O)N[C@@H](C)C(=O)N[C@@H]1CCC(=O)NCCC[C@@H](C(=O)O)NC(=O)[C@H](Cc2c[nH]cn2)NC(=O)[C@H](Cc2ccc3ccccc3c2)NC(=O)[C@H](CCCNC(=N)N)NC1=O,pIC50,[1],< 8.00
